In brackets after ≈: the same amount, converted by molar mass.
Legend:
B. subtilis [1] = experiment: Antibacterial disc diffusion; assay type: cell-based, Bacillus subtilis; conditions: B. subtilis (G + ve)
Experimental: (§1) The antibacterial activity of the synthesized compound was evaluated using the disc diffusion method in accordance with the clinical and laboratory standards institute’s recommendations. Molten Mueller–Hinton agar and Sabouraud dextrose agar media were inoculated with the inoculum at 35 ± 2 °C and then poured into a Petri dish (90 mm). Each sample was soaked on 6 mm absorbent discs in dimethyl sulfoxide (DMSO) and placed on the inoculation plates. After 2 h at 4 °C, the plates were incubated at 35 ± 2 °C for 18–20 h. The inhibition zone diameters were determined. Positive control discs of selected antibiotics were included in each assay; inhibition zones were compared to the reference discs. Negative controls were treated with DMSO, and the assays were performed in triplicate.

E. coli [2] = experiment: Antibacterial disc diffusion; assay type: cell-based, Escherichia coli; conditions: E. coli (G − ve)
Experimental: as §1

S. aureus = experiment: Antibacterial disc diffusion; assay type: cell-based; conditions: S. aureus (G + ve) in Table 2, disc diffusion
Experimental: as §1

S. typhi = experiment: Antibacterial disc diffusion; assay type: cell-based, Salmonella typhi; conditions: S. typhi (G − ve)
Experimental: as §1

P. aeruginosa [3] = experiment: Antibacterial disc diffusion; assay type: cell-based, Pseudomonas aeruginosa; conditions: P. aeruginosa (G − ve)
Experimental: as §1

five bacterial pathogens = experiment: Antibacterial disc diffusion, statements on groups of bacteria; assay type: cell-based
Experimental: as §1

brine shrimp nauplii = experiment: Brine shrimp lethality bioassay; conditions: 24 and 48 h
Experimental: Vials A, B, C, and D contained 4, 8, 16, and 32 μL of material. Each vial received 10 brine shrimp nauplii at […]. Ten nauplii in 5 mL saltwater were used for a control test. The vials were incubated at room temperature for 24–48 h. After incubation, the vials were magnified and counted to determine how many survived. Each concentration has an average nauplii mortality rate.

Aspergillus flavus = experiment: Mycelial growth inhibition, poisoned food method; assay type: cell-based; conditions: 20 μg/μL in DMSO
Experimental: (§2) The potato dextrose agar (PDA)-based antifungal experiment was screened using the food poisoning approach. Sterilized 70 mm glass Petri dishes were filled with 20 mL melted PDA (45 °C). After the medium solidified, sterilized needles placed small amounts of mycelia from the two fungal pathogens in the center of each plate. […] After 48 h at 37 °C, mycelial growth was measured.

Aspergillus niger = experiment: Mycelial growth inhibition, poisoned food method; assay type: cell-based; conditions: for Millimeters of Fungal Mycelial Growth Inhibition in DMSO (20 μg/μL): Aspergillus niger, 20 μg/μL in DMSO
Experimental: as §2

[4] = system: EAC (Ehrlich ascites carcinoma) cells; experiment: MTT assay, antiproliferative activity; assay type: cell-based, Swiss albino mouse
Experimental: Ehrlich ascites carcinoma (EAC) cells were cultivated in conventional DMEM from a Swiss albino mouse bearing a tumor [45]. A 96-well flat-bottomed cell culture plate with 2 × 10^4 cells in 100 μL was incubated at 37 °C in a CO2 incubator for 24 h. Controls were three wells of untreated EAC cells in DMEM. […] After removing the aliquot, 10 mM PBS and 20 μL of MTT reagent (5 mg/mL MTT in PBS) were added. After another 8 h at 37 °C, the aliquot was drained, and acidic isopropanol (200 μL) was added. Absorbance values at 570 nm were recorded after another 30 min CO2 incubator incubation. The following formula was used to estimate cell proliferation incubation:Proliferation inhibition ratio (%) = (A − B) × 100/A where A and B represent the cellular homogenate OD570 nm from control wells and compound 6-treated wells, respectively.

E. coli [5] = experiment: MIC and MBC microdilution; conditions: Escherichia coli
Experimental: (§3) Microdilution techniques were employed to calculate the minimum inhibitory concentration (MIC) and the minimum bactericidal concentration (MBC). […] After solidification, the medium incorporated was seeded from suspensions of bacteria at a concentration of 0.5 McFarland standard (1.0 × 10^8 CFU/mL). After 18–20 h of incubation at 35 ± 2 °C, the absence or presence of microbial growth in Petri dishes was determined by examination with the naked eye. […] All compounds were evaluated three times against each microorganism.

B. cereus = experiment: MIC and MBC microdilution; conditions: Bacillus cereus
Experimental: as §3

B. subtilis [6] = experiment: MIC and MBC microdilution; conditions: Bacillus subtilis
Experimental: as §3

Bacillus cereus = experiment: Antibacterial disc diffusion; assay type: cell-based; conditions: as named in text
Experimental: as §1

S.typhi = experiment: MIC and MBC microdilution; conditions: Salmonella enterica
Experimental: as §3

P. aeruginosa [7] = experiment: MIC and MBC microdilution; conditions: Pseudomonas aeruginosa
Experimental: as §3

SMILES	Diameter of Inhibition Zones (S. aureus)	Diameter of Inhibition Zones (S. typhi)	activity against Gram-positive organisms (five bacterial pathogens)	inhibition against the Gram-negative bacteria P. aeruginosa and S. typhi (five bacterial pathogens)	death (brine shrimp mortality) (brine shrimp nauplii)	Millimeters of Fungal Mycelial Growth Inhibition in DMSO (20 μg/μL) (Aspergillus flavus)	inhibition of A. niger (Aspergillus niger)	Millimeters of Fungal Mycelial Growth Inhibition in DMSO (20 μg/μL) (Aspergillus niger)	inhibition among all bacterial types (five bacterial pathogens)	also measured
CC[C@H]1OC(=O)[C@H](C)[C@@H](O[C@H]2C[C@@](C)(OC)[C@@H](O)[C@H](C)O2)[C@H](C)[C@@H](O[C@@H]2O[C@H](C)C[C@H](N(C)C)[C@H]2O)[C@](C)(O)C[C@@H](C)CN(C)[C@H](C)[C@@H](O)[C@]1(C)O [Azithromycin, reference compound]	** 17 ± 0.50 mm	** 18 ± 0.90 mm								Diameter of Inhibition Zones (B. subtilis [1]): ** 18 ± 0.10 mm; Diameter of Inhibition Zones (E. coli [2]): ** 17 ± 0.50 mm; Diameter of Inhibition Zones (P. aeruginosa [3]): ** 15 ± 0.10 mm
CCCCCCCCCCCCCCCC(=O)OC[C@H]1O[C@@H](n2ccc(=O)[nH]c2=O)[C@H](OC(=O)c2ccc(C(C)(C)C)cc2)[C@@H]1OC(=O)c1ccc(C(C)(C)C)cc1 [Compound 7, 2′,3′-Di-oxo-(4-t-butylbenzoyl)-5′-oxo-palmitoyluridine]		9 ± 0.00 mm	inactive	reasonable inhibition	33.71%	* 63 ± 0.10 Millimeters	66 ± 0.41%	* 66 ± 0.41 Millimeters		
O=c1ccn([C@@H]2O[C@H](CO)[C@@H](O)[C@H]2O)c(=O)[nH]1 [Compound 1, uridine, reference compound]			inactive						no inhibition	
CCCCCCCCCCCCCCCC(=O)OCC1OC(n2ccc(=O)[nH]c2=O)C(OC(=O)CCCCCCCCCCC)C1OC(=O)CCCCCCCCCCC (centres unmarked) [Compound 3, 2′,3′-Di-oxo-lauroyl-5′-oxo-palmitoyluridine]		* 11.0 ± 0.0 mm	inactive	reasonable inhibition	48.24–49.28%					
CCCCCCCCCCCCCCCC(=O)OC[C@H]1O[C@@H](n2ccc(=O)[nH]c2=O)[C@H](OC(=O)C=Cc2ccccc2)[C@@H]1OC(=O)C=Cc1ccccc1 [Compound 6, 2′,3′-Di-oxo-cinnamoyl-5′-oxo-palmitoyluridine]			inactive			53 ± 0.33 Millimeters	72 ± 0.95%	* 72 ± 0.95 Millimeters	no inhibition	cytotoxicity effects ([4]; 15.625 µg/mL): 3.11%; cytotoxicity effects ([4]; 31.25 µg/mL): 4.41%; cytotoxicity effects ([4]; 62.25 µg/mL (62.5 in Figure 5)): 5.41%; cytotoxicity effects ([4]; 125 µg/mL): 7.51%; cytotoxicity effects ([4]; 250 µg/mL): 14.02%; cytotoxicity effects ([4]; 500 µg/mL): 23.22%; IC50 ([4]; Mus musculus, Ehrlich, MTT): > 500 µg/mL
CCCCCCCCCCCCCCCC(=O)OC[C@H]1O[C@@H](n2ccc(=O)[nH]c2=O)[C@H](O)[C@@H]1O [Compound 2, 5′-Oxo-palmitoyluridine]			inactive		31.21%				no inhibition	
CCCCCCCCCCCCCCCC(=O)OCC1OC(n2ccc(=O)[nH]c2=O)C(OC(c2ccccc2)(c2ccccc2)c2ccccc2)C1OC(c1ccccc1)(c1ccccc1)c1ccccc1 (centres unmarked) [Compound 5, 5′-oxo-Palmitoyl-2′,3′-di-oxo-trityluridine]	* 16 ± 0.20 mm	* 12 ± 0.25 mm			34.25%	* 66 ± 0.39 Millimeters	64 ± 0.44%	* 64 ± 0.44 Millimeters		MIC (E. coli [5]): 4 µg/mL (≈ 4.14 µM); MBC (E. coli [5]; E. coli): 8 µg/mL (≈ 8.27 µM); MIC (B. cereus): 1 µg/mL (≈ 1.03 µM); MBC (B. cereus; B. cereus): 16 µg/mL (≈ 16.5 µM); MBC (B. subtilis [6]): 8 µg/mL (≈ 8.27 µM); MIC (B. subtilis [6]): 0.5 µg/mL (≈ 0.517 µM); inhibition zone (Bacillus cereus): 16 ± 0.20 mm; MBC (S.typhi): 8 µg/mL (≈ 8.27 µM); MIC (S.typhi): 0.5 µg/mL (≈ 0.517 µM)
C[C@@H]1[C@H](O)[C@@H](C)/C=C/C=C/CC/C=C/C=C/C=C/C=C/C(O[C@H]2O[C@H](C)[C@@H](O)[C@H](N)[C@@H]2O)CC2O[C@](O)(CC(O)C(O)CCC(O)CC(O)CC(O)CC(=O)O[C@H]1C)CC(O)C2C(=O)O (some centres unmarked) [Nystatin, reference compound]						61 ± 0.00 Millimeters	59 ± 0.00%	59 ± 0.00 Millimeters		
CCCCCCCCCCCCCCCC(=O)OCC1OC(n2ccc(=O)[nH]c2=O)C(OC(=O)CCCCCCCCCCCCC)C1OC(=O)CCCCCCCCCCCCC (centres unmarked) [Compound 4, 2′,3′-Di-oxo-myristoyl-5′-oxo-palmitoyluridine]	* 15 ± 0.50 mm			reasonable inhibition	48.24–49.28%	31 ± 0.15 Millimeters				MBC (P. aeruginosa [7]): 16 µg/mL (≈ 17.7 µM); MIC (P. aeruginosa [7]): 0.5 µg/mL (≈ 0.554 µM); MIC (E. coli [5]): 0.5 µg/mL (≈ 0.554 µM); MIC (B. cereus): 0.13 µg/mL (≈ 0.144 µM); MBC (B. subtilis [6]): 8 µg/mL (≈ 8.86 µM); MIC (B. subtilis [6]): 4 µg/mL (≈ 4.43 µM); inhibition zone (Bacillus cereus): 15 ± 0.50 mm; MBC (S.typhi): 16 µg/mL (≈ 17.7 µM); MIC (S.typhi): 0.5 µg/mL (≈ 0.554 µM); Diameter of Inhibition Zones (P. aeruginosa [3]): 7 ± 0.25 mm
